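Where inhibition never reached the appropriate level, the endpoint shown equals the highest concentration tested. Otherwise, values were interpolated linearly from a five-concentration, 48-hour dose response in 96-well plates. TGI marks complete inhibition of growth.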
Assays:
Assay in all cases: NCI anticancer screen, dose series, 48 h
TK-10 renal = system: TK-10 renal
HL-60(TB) leukemia = system: HL-60(TB) leukemia
K-562 leukemia = system: K-562 leukemia
HS 578T breast = system: HS 578T breast
HOP-62 NSCLC = system: HOP-62 NSCLC
MDA-MB-231 breast = system: MDA-MB-231 breast
OVCAR-3 ovarian = system: OVCAR-3 ovarian
PC-3 prostate = system: PC-3 prostate
HCT-116 colon = system: HCT-116 colon
M14 melanoma = system: M14 melanoma
NCI-H23 lung = system: NCI-H23 lung
HCT-15 colon = system: HCT-15 colon

SMILES	TGI (TK-10 renal) [µM]	TGI (HL-60(TB) leukemia) [µM]	TGI (K-562 leukemia) [µM]	TGI (HS 578T breast) [µM]	TGI (HOP-62 NSCLC) [µM]	TGI (MDA-MB-231 breast) [µM]	TGI (OVCAR-3 ovarian) [µM]	TGI (PC-3 prostate) [µM]	TGI (HCT-116 colon) [µM]	TGI (M14 melanoma) [µM]	TGI (NCI-H23 lung) [µM]	TGI (HCT-15 colon) [µM]
COc1ccc(NC2Oc3cc4c(cc3C(c3cc(OC)c(OC)c(OC)c3)C2C)OCO4)cc1 (configuration not stated)	> 82.8	2	> 100	> 100	6.98	> 57.4	> 100	> 100	19.1	> 45.1	> 89.7	–
CCN(CCCN(CC)C(=O)N[C@@H](Cc1ccccc1)C(=O)NC)C(=O)N[C@@H](Cc1ccccc1)C(=O)NC	> 100	–	–	> 100	> 100	> 100	> 100	> 100	> 100	> 100	> 100	> 100
C(=Nc1ccc(-c2nc3ccccc3s2)cc1)c1ccco1	8.51	–	> 100	> 100	> 100	–	> 100	> 100	> 100	> 100	> 100	> 100
O=C(CCc1ccc(O)cc1)c1c(O)cc(O)cc1OC1OC(CO)C(O)C(O)C1O (configuration not stated)	> 100	–	> 100	> 100	> 100	–	> 100	> 100	> 100	> 100	> 100	> 100
O=C1/C(=C/c2ccc(F)cc2)CNC/C1=C\c1ccc(F)cc1	6.71	> 100	–	> 42.1	4.56	13.5	3.99	4.41	0.915	4.35	3.5	1.97
O=C1/C(=C/c2ccc(Br)s2)NC(=S)N1CN1CCOCC1	> 100	62.6	99.2	> 100	> 100	> 100	> 100	> 100	> 100	–	> 100	> 100
O=c1nc2c(c(-c3cccc(Cl)c3)[nH]1)COC/C2=C\c1cccc(Cl)c1	> 100	–	> 100	> 100	> 100	> 100	> 100	> 100	> 100	> 100	> 100	> 100
O=C(OCc1ccccc1)OOC(=O)OCc1ccccc1	–	> 100	> 100	–	> 100	–	> 100	–	> 100	> 100	> 100	> 100
Cc1nc(Cl)c(CBr)c(Cl)n1	3.68	–	0.887	5.94	4.03	3.67	1.97	3.13	1.19	0.949	3.69	4.37
CC1=C2c3ccccc3N(C(=O)/C=C/C(=O)O)[C@H]2[C@H]2C(=O)OC(=O)[C@H]2C1	> 10	> 10	–	> 10	> 10	> 10	> 10	> 10	> 10	> 10	> 10	> 10
CC(C)CCNC(=O)c1ccc(CNC(=O)/C=C/c2ccc(OCc3ccccc3)cc2)cc1	–	–	> 100	–	> 100	> 100	> 100	> 100	> 100	> 100	> 100	> 100
CN(C)c1ccc(/C(Br)=C2\OC(=O)c3ccccc32)cc1	> 100	> 100	> 100	> 100	> 100	> 100	–	> 100	> 100	> 100	> 100	> 100
CC(=O)Nc1ccc(Cl)c(Cl)c1	> 100	–	> 100	–	> 100	–	> 100	–	> 100	> 100	> 100	> 100
O=C1C(Cl)N(c2ccccc2)C1c1c[nH]c2ccccc12 (configuration not stated)	> 100	> 100	> 100	–	> 100	–	> 100	–	> 100	> 100	> 100	–
N#Cc1c2c(c(Nc3ccc(F)cc3)n3c1nc1ccccc13)CCC2	6.51	> 100	> 100	–	11.2	11.3	18.5	19	3.45	18.4	17.6	13.1
CSc1c(C(=O)Nc2ccc(C)cc2)c(N)[nH]c(=O)c1C#N	> 100	> 100	> 100	> 100	–	> 100	> 100	> 100	> 100	> 100	> 100	> 100

— PubChem BioAssay (NCI)
